Assay results taken from ChEMBL document CHEMBL5131494, “Phe19 modification of HDM2-p53 PPI inhibitors to alleviate CYP3A4 metabolism/mechanism-based inhibition liability” (Bioorg Med Chem Lett, 2022).

Assays:
[1] = molecular target: T1, Cytochrome P450 3A4 (Homo sapiens, UniProt P08684); assay: Inhibition of CYP3A4 (unknown origin) using testosterone as substrate in presence of NADPH; assay type: ADME
[2] = molecular target: CYP3A4 (Homo sapiens, UniProt P08684); assay: Ratio of IC50 for CYP3A4 (unknown origin) co-incubated with NADPH to IC50 for CYP3A4 (unknown origin) pretreated with NADPH; settings: read-out: Ratio IC50
CYP3A4, sequence (P08684 whole entry): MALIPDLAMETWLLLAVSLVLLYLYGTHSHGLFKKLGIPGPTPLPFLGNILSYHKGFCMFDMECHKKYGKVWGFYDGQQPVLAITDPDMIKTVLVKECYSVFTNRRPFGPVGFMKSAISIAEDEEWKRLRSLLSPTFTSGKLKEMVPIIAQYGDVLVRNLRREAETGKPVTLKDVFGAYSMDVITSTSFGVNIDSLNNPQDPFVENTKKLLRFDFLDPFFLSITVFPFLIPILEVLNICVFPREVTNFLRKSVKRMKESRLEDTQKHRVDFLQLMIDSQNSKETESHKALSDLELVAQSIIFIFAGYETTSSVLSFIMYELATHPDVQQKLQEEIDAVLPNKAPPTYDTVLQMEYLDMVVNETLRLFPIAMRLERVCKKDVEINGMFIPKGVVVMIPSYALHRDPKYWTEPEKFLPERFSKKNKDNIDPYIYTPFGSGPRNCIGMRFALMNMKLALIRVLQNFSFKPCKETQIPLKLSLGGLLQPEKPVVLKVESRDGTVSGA

[3] = molecular target: T1, Cytochrome P450 3A4; assay: Inhibition of CYP3A4 (unknown origin) using testosterone as substrate pretreated with NADPH; assay type: ADME
[4] = molecular target: Tumour suppressor p53/oncoprotein Mdm2 (Homo sapiens, UniProt Q00987); assay: Inhibition of HDM2-p53 (unknown origin) protein-protein interaction by fluorescence polarization peptide displacement assay
Tumour suppressor p53/oncoprotein Mdm2, sequence (P04637 whole entry): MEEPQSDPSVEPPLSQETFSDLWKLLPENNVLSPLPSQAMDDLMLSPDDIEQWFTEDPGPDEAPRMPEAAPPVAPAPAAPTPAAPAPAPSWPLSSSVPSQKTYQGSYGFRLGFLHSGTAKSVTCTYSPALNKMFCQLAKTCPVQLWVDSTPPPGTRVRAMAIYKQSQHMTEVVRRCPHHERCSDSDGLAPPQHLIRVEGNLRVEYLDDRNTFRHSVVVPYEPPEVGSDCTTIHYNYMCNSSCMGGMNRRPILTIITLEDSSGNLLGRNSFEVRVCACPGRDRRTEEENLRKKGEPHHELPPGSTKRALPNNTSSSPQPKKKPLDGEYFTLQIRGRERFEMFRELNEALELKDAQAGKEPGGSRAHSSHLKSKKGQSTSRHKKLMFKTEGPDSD
Tumour suppressor p53/oncoprotein Mdm2, sequence (Q00987 whole entry): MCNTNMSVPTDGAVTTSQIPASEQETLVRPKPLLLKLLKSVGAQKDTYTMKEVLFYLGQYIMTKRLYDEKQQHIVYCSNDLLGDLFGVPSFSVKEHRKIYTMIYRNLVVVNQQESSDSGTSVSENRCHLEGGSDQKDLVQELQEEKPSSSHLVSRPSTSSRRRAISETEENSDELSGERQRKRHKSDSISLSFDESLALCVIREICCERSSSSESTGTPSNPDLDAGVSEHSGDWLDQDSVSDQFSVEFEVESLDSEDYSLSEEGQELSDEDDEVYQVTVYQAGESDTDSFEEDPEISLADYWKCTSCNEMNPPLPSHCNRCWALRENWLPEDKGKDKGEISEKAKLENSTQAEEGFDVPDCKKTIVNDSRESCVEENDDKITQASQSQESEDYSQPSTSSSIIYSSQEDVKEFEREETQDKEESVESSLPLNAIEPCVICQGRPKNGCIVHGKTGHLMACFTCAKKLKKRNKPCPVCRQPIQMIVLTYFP

T1 sequence (P08684 whole entry): as the sequence (P08684 whole entry) above

SMILES | IC50 [1] [nM] | IC50 [3] [nM] | IC50 [4] [nM] | IC50 shift [2]
CCC[C@H]1N(C(=O)c2cnccc2C(F)(F)F)CCC[C@@]1(Oc1csc(C(F)(F)F)c1)C(=O)N1CCN(c2ccccc2OCCCC(=O)O)CC1 | 20000 | 900 | – | 23
CCC[C@H]1N(C(=O)c2cnccc2C(F)(F)F)CCC[C@@]1(Oc1csc(C(F)(F)F)c1)C(=O)N1CCN(c2ccccc2OCCO)CC1 | 6600 | 300 | 15 | –
CCC[C@H]1N(C(=O)c2cccnc2)CCC[C@@]1(Oc1csc(C(F)(F)F)c1)C(=O)N1CCN(c2ccccc2OCCO)CC1 | – | – | 1770 | –
CCC[C@H]1N(C(=O)c2cc(F)ccc2C(F)(F)F)CCC[C@@]1(Oc1csc(C(F)(F)F)c1)C(=O)N1CCN(c2ccccc2OCCO)CC1 | 50000 | 600 | 34 | 90
CCC[C@H]1N(C(=O)c2c(C(F)(F)F)ccnc2OCCN(C)C)CCC[C@@]1(Oc1csc(C(F)(F)F)c1)C(=O)N1CCN(c2ccccc2OCCO)CC1 | 20000 | 2000 | 10 | 10
CCC[C@H]1N(C(=O)c2cnccc2C)CCC[C@@]1(Oc1csc(C(F)(F)F)c1)C(=O)N1CCN(c2ccccc2OCCO)CC1 | 6900 | 1200 | 34 | 6
CCC[C@H]1N(C(=O)c2cnccc2C(F)(F)F)CCC[C@@]1(Oc1csc(C(F)(F)F)c1)C(=O)N1CCN(c2ccccc2OC)CC1 | 10000 | 300 | 30 | 33
C=CCNc1nccc(C(F)(F)F)c1C(=O)N1CCC[C@@](Oc2csc(C(F)(F)F)c2)(C(=O)N2CCN(c3ccccc3OCCO)CC2)[C@H]1CCC | – | – | 1000 | –
CCC[C@H]1N(C(=O)c2c(C(F)(F)F)ccnc2OCC(=O)NC)CCC[C@@]1(Oc1csc(C(F)(F)F)c1)C(=O)N1CCN(c2ccccc2OCCO)CC1 | – | – | 246 | –
CCC[C@H]1N(C(=O)c2c(C(F)(F)F)ccnc2O)CCC[C@@]1(Oc1csc(C(F)(F)F)c1)C(=O)N1CCN(c2ccccc2OCCO)CC1 | 30000 | 30000 | 44 | 1

More lines, in order of falling IC50 [4], values ahead:

IC50 [1] [nM] | IC50 [3] [nM] | IC50 [4] [nM] | SMILES | IC50 shift [2]
– | – | 6800 | CCC[C@H]1N(C(=O)c2c(N)cccc2C(F)(F)F)CCC[C@@]1(Oc1csc(C(F)(F)F)c1)C(=O)N1CCN(c2ccccc2OCCO)CC1 | –
– | – | 117 | CCC[C@H]1N(C(=O)c2cccnc2C(F)(F)F)CCC[C@@]1(Oc1csc(C(F)(F)F)c1)C(=O)N1CCN(c2ccccc2OCCO)CC1 | –
50000 | 1500 | 103 | CCC[C@H]1N(C(=O)c2c(C(F)(F)F)ccnc2OCCO)CCC[C@@]1(Oc1csc(C(F)(F)F)c1)C(=O)N1CCN(c2ccccc2OCCO)CC1 | 33
– | – | 66 | CCC[C@H]1N(C(=O)c2ccncc2C(F)(F)F)CCC[C@@]1(Oc1csc(C(F)(F)F)c1)C(=O)N1CCN(c2ccccc2OCCO)CC1 | –
50000 | 400 | 65 | CCC[C@H]1N(C(=O)c2c(F)cccc2C(F)(F)F)CCC[C@@]1(Oc1csc(C(F)(F)F)c1)C(=O)N1CCN(c2ccccc2OCCO)CC1 | 126
20000 | 9200 | 32 | CCC[C@H]1N(C(=O)c2c(C(F)(F)F)ccnc2O)CCC[C@@]1(Oc1csc(C(F)(F)F)c1)C(=O)N1CCN(c2ccccc2OC)CC1 | 2
50000 | 5700 | 28 | C=CCOc1nccc(C(F)(F)F)c1C(=O)N1CCC[C@@](Oc2csc(C(F)(F)F)c2)(C(=O)N2CCN(c3ccccc3OCCO)CC2)[C@H]1CCC | 9
20000 | 4400 | 25 | CCC[C@H]1N(C(=O)c2c(C(F)(F)F)ccnc2OCC(=O)O)CCC[C@@]1(Oc1csc(C(F)(F)F)c1)C(=O)N1CCN(c2ccccc2OCCO)CC1 | 5
50000 | 1900 | 22 | CCC[C@H]1N(C(=O)c2c(C(F)(F)F)ccc[n+]2[O-])CCC[C@@]1(Oc1csc(C(F)(F)F)c1)C(=O)N1CCN(c2ccccc2OCCO)CC1 | 26
50000 | 50000 | 11 | CCC[C@H]1N(C(=O)c2c(C(F)(F)F)ccnc2O)CCC[C@@]1(Oc1csc(C(F)(F)F)c1)C(=O)N1CCN(c2ccccc2OCCCC(=O)O)CC1 | 1
35100 | 200 | 7 | CCC[C@H]1N(C(=O)c2ncccc2C(F)(F)F)CCC[C@@]1(Oc1csc(C(F)(F)F)c1)C(=O)N1CCN(c2ccccc2OCCO)CC1 | 160
